What was measured:
HSV-2 333 TKnull = test: microbe, parasite or virus in culture; settings: Human alphaherpesvirus 2, Vero, 24 h
clinical HSV-1 isolates = test: Inhibition of clinically derived HSV-1 isolates in Vero cells, cell viability assay; format: cell-based; settings: US origin
Procedure: Four American isolates (HSV-1 Bethesda and HSV-1 RH; HSV-2 Bethesda and HSV-2 RH), 3 Asian isolates (HSV-2 JA-1, HSV-2 JA-2, and HSV-2 JA-3), and 4 isolates with ACV resistance (poly-mut, C7, C8, and IC) were investigated via a cell viability assay. […] Then, the mixtures were aliquoted into a 96-well plate seeded with Vero cells. After incubation for 48 hours at 37° C., the plate was washed with PBS once, and the viable cells were incubated with 1% Alamar blue for 1 hour.

HSV-1 RE TKnull = test: microbe, parasite or virus in culture; settings: Human alphaherpesvirus 1, Vero, 24 h
[1] = Human alphaherpesvirus 1, Vero, HSV-1 RH

Nc1nc2c(ncn2COCCO)c(=O)[nH]1 [ACV, acyclovir]
IC50 (HSV-2 333 TKnull): > 0.1 µM | IC90 (clinical HSV-1 isolates; HSV-1 Bethesda): > 35.5 µM | IC50 (clinical HSV-1 isolates; Human alphaherpesvirus 1, Vero, HSV-1 Bethesda): 3.62 µM | IC50 (clinical HSV-1 isolates; [1]): 4.73 µM | IC90 (clinical HSV-1 isolates; [1]): > 35.5 µM | IC50 (HSV-1 RE TKnull): > 0.1 µM

Source: patent US20240083981A1, “TREATMENT OF HERPES SIMPLEX VIRUS INFECTION” (priority 2022, published 2024)
